Data reported in EP0293133A2, “Microorganisms and processes for the manufacture of antifungal tri-yne carbonates” (Merck & Co., Inc., priority 1987, dated 1988).
Read-outs that look alike come from different tables or passages of the source.

Columns and labels:
Assay in all cases: agar dilution assay, antifungal activity (MIC)
Format in all cases: cell-based
Ca. guilliermondii = details: Meyerozyma guilliermondii; Ca. guilliermondii MY1019; yeast nitrogen base plus glucose agar, 28°C, 48 hours; read-out: MINIMUM INHIBITORY CONCENTRATION
Procedure: (§1) The antifungal activity of the compound of formula I was determined by an agar dilution assay as follows: […]
(§2) The compound of formula I was added to cooled, molten yeast nitrogen base plus glucose agar (1.0 ml of drug plus 9.0 ml agar). Appropriate solvent and media controls (drug free) also were prepared. Prepared plates were stored in the dark at room temperature overnight prior to use.
(§3) The yeast cultures, maintained in yeast maltose (YM) broth, were transferred to fresh YM medium and incubated overnight at 37°C with shaking (250 rpm). After incubation, each culture was diluted in sterile saline to yield final concentrations of 3 x 10⁵ to 3 x 10⁶ colony forming units (CFU)/ml. The isolates of Aspergillus and Penicillium were maintained on potato dextrose agar slants and spore suspensions made following vigourous shaking with sterile glass beads. The spore preparations were used as the inocula for these three filamentous fungi.
(§4) Each prepared plate was inoculated with 21 yeast-like and filamentous fungi using a Denley Multipoint Inoculator (Denley, Sussex, England). The inoculator delivers approximately 0.001 ml to the agar surface resulting in inoculation of from 3 x 10² to 3 x 10³ CFUs. The plates were incubated at 28°C for 48 hours. The minimum inhibitory concentrations (MICs) were recorded as the lowest concentration of drug showing no growth or less than three CFU/spot.

Ca. rugosa = details: Diutina rugosa; Ca. rugosa MY1022; yeast nitrogen base plus glucose agar, 28°C, 48 hours; read-out: MINIMUM INHIBITORY CONCENTRATION
Procedure: as §1, §2, §3, §4

Crypotococcus neoformans = details: yeast nitrogen base plus glucose agar, 28°C, 48 hours, read-out: MINIMUM INHIBITORY CONCENTRATION
Procedure: as §1, §2, §3, §4

Ca. stellatoidea = details: Candida albicans; Ca. stellatoidea MY1018; yeast nitrogen base plus glucose agar, 28°C, 48 hours; read-out: MINIMUM INHIBITORY CONCENTRATION
Procedure: as §1, §2, §3, §4

Aspergillus fumigatus = Aspergillus fumigatus MF4839; spore inoculum, yeast nitrogen base plus glucose agar, 28°C, 48 hours; read-out: MINIMUM INHIBITORY CONCENTRATION
Procedure: as §1, §2, §3, §4

Torulopsis glabrata = details: Nakaseomyces glabratus; Torulopsis glabrata MY1059; yeast nitrogen base plus glucose agar, 28°C, 48 hours; read-out: MINIMUM INHIBITORY CONCENTRATION
Procedure: as §1, §2, §3, §4

A. flavus = details: Aspergillus flavus; A. flavus MF0383; spore inoculum, yeast nitrogen base plus glucose agar, 28°C, 48 hours; read-out: MINIMUM INHIBITORY CONCENTRATION
Procedure: as §1, §2, §3, §4

Candida albicans = details: 48 h, 28°C, read-out: MINIMUM INHIBITORY CONCENTRATION
Procedure: as §1, §2, §3, §4

Ca. pseudotropicallis = Ca. pseudotropicallis MY1040; yeast nitrogen base plus glucose agar, 28°C, 48 hours; read-out: MINIMUM INHIBITORY CONCENTRATION
Procedure: as §1, §2, §3, §4

Ca. tropicalis = details: Candida tropicalis, 48 h, 28°C, read-out: MINIMUM INHIBITORY CONCENTRATION
Procedure: as §1, §2, §3, §4

Ca. parapsilosis = details: Lodderomyces parapsilosis, 48 h, 28°C, read-out: MINIMUM INHIBITORY CONCENTRATION
Procedure: as §1, §2, §3, §4

Penicillium italicum = Penicillium italicum MF2819; spore inoculum, yeast nitrogen base plus glucose agar, 28°C, 48 hours; read-out: MINIMUM INHIBITORY CONCENTRATION
Procedure: as §1, §2, §3, §4

Ca. krusei = details: Pichia kudriavzevii; Ca. krusei MY1020; yeast nitrogen base plus glucose agar, 28°C, 48 hours; read-out: MINIMUM INHIBITORY CONCENTRATION
Procedure: as §1, §2, §3, §4

Sac. cerevisiae = details: Saccharomyces cerevisiae; Sac. cerevisiae MY1027; yeast nitrogen base plus glucose agar, 28°C, 48 hours; read-out: MINIMUM INHIBITORY CONCENTRATION
Procedure: as §1, §2, §3, §4

Question: How did the MIC (Ca. guilliermondii) turn out when C#CC#CC#CC(O)C1OC(=O)OC1CCCCCCC(=O)O (stereo not drawn) [compound of formula I] was run?
Answer: 7.5 µg/mL

Question: What about the MIC (Ca. rugosa) of the same compound?
Answer: 7.5 µg/mL

Question: What about the MIC (Crypotococcus neoformans; Cr. neoformans MY1146) of the same compound?
Answer: 3.75 µg/mL

Question: What about the MIC (Crypotococcus neoformans; Crypotococcus neoformans MY1051) of the same compound?
Answer: 1.88 µg/mL

Question: What about the MIC (Ca. stellatoidea) of the same compound?
Answer: 7.5 µg/mL

Question: What about the MIC (Aspergillus fumigatus) of the same compound?
Answer: > 30 µg/mL

Question: What about the MIC (Torulopsis glabrata) of the same compound?
Answer: 1.88 µg/mL

Question: What about the MIC (A. flavus) of the same compound?
Answer: > 30 µg/mL

Question: What about the MIC (Candida albicans; Ca. albicans MY0992, yeast nitrogen base plus glucose agar) of the same compound?
Answer: 7.5 µg/mL

Question: What about the MIC (Candida albicans; Ca. albicans MY1013, yeast nitrogen base plus glucose agar) of the same compound?
Answer: 0.47 µg/mL

Question: And the MIC (Candida albicans; Ca. albicans MY1029, yeast nitrogen base plus glucose agar)?
Answer: 0.47 µg/mL

Question: What about the MIC (Candida albicans; Ca. albicans MY1055, yeast nitrogen base plus glucose agar) of the same compound?
Answer: 0.47 µg/mL

Question: And the MIC (Candida albicans; Candida albicans MY1058, yeast nitrogen base plus glucose agar)?
Answer: 0.47 µg/mL

Question: And the MIC (Ca. pseudotropicallis)?
Answer: 0.94 µg/mL

Question: What about the MIC (Ca. tropicalis; Ca. tropicalis MY1011, yeast nitrogen base plus glucose agar) of the same compound?
Answer: 15 µg/mL

Question: What about the MIC (Ca. tropicalis; Ca. tropicalis MY1012, yeast nitrogen base plus glucose agar) of the same compound?
Answer: 1.88 µg/mL

Question: And the MIC (Ca. parapsilosis; Ca. parapsilosis MY1009, yeast nitrogen base plus glucose agar)?
Answer: 1.88 µg/mL

Question: And the MIC (Ca. parapsilosis; Ca. parapsilosis MY1010, yeast nitrogen base plus glucose agar)?
Answer: 0.47 µg/mL

Question: And the MIC (Penicillium italicum)?
Answer: 7.5 µg/mL

Question: What about the MIC (Ca. krusei) of the same compound?
Answer: 30 µg/mL

Question: And the MIC (Sac. cerevisiae)?
Answer: 1.88 µg/mL
